In patent publication US20200222377A1, “Methods Of Enhancing And/Or Stabilizing Cardiac Function In Patients With Fabry Disease” (Amicus Therapeutics, Inc., priority 2017, published 2020):

What was measured:
[1] = system: ERT-naïve Fabry patients; conditions: human, in vivo
Description: (§1) Study Design. Following eligibility-baseline assessments (2 months), patients were randomized to Stage 1—6 months of double-blind administration of 150 mg migalastat hydrochloride or placebo every other day. All patients completing Stage 1 were eligible to receive open-label migalastat in Stage 2 (months 6-12) and for an additional year (months 13-24) thereafter. The primary objective was to compare the effect of migalastat to placebo on kidney GL-3 as assessed by histological scoring of the number of inclusions in interstitial capillaries after 6 months of treatment. The secondary objectives of Stage 1 were to compare the effect of migalastat to placebo on urine GL-3 levels, on renal function, 24-hours urinary protein, and on safety and tolerability. The tertiary objectives were cardiac function, patient-reported outcomes, exploratory kidney analyses, and white blood cell α-Gal A activity. Study completers were eligible to enroll in the open-label extension study for up to 5 years.
(§2) Safety Analysis and Adverse Events. Randomized patients receiving ≥1 dose were included in the safety analysis, which comprised vital signs, physical exams, electrocardiograms, clinical labs, and adverse events.

[2] = system: ERT-naïve Fabry patients; assay: Phase 3 study in ERT-naïve Fabry patients: safety analysis and adverse events
Description: as §1, §2

[3] = system: ERT-experienced Fabry patients; assay: Phase 3 study of migalastat therapy in ERT-experienced Fabry patients: MWFS by echocardiography; type: in vivo, human
Description: This example describes a Phase 3 study of migalastat therapy in ERT-experienced Fabry patients.
Study Design. Following eligibility-baseline assessments, 57 patients were randomized to 18 months of migalastat therapy or ERT, followed by followed by 12 months of migalastat therapy. The migalastat dosing regimen was 150 mg of migalastat hydrochloride every other day.
Baseline MWFS. At baseline, impaired MWFS (<15% for females and <14% for males) was reported in 19 (14 migalastat, 5 ERT) patients.

[4] = target: T1, wild-type α-Gal A and specific mutant forms of α-Gal A (Homo sapiens, UniProt P06280); conditions: selective and reversible binding; cited from earlier work
T1 sequence (P06280 32-429): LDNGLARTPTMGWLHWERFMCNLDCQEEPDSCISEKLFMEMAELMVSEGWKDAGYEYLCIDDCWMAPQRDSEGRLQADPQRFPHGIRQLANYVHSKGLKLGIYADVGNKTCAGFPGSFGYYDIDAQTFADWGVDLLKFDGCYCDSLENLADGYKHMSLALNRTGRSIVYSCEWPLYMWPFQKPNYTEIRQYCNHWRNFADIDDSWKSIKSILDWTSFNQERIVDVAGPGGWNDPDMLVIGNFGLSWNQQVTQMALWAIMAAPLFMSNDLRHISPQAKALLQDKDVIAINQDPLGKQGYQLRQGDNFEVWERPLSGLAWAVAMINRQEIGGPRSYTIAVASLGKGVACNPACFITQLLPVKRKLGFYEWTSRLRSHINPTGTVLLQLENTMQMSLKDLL

[5] = system: ERT-naïve Fabry patients; assay: Phase 3 study of migalastat therapy in ERT-naïve Fabry patients: MWFS by echocardiography; type: in vivo, human; conditions: for Change from baseline in MWFS, mean / Mean change from baseline in MWFS: amenable mutations
Description: This example describes a Phase 3 study of migalastat therapy in ERT-naïve Fabry patients. Patient Enrollment. […] Study Design. […] Echocardiography. LVMi, left posterior wall thickness, diastolic, interventricular septum thickness, diastolic and other parameters were assessed through blinded, centralized evaluation. Baseline MWFS. At baseline, impaired MWFS (<15% for females and <14% for males) was reported in 9 patients.

[6] = open-label-extension (months 12-24), 6/57 patients
[7] = patients with LVH at baseline, Month 48

With `OC[C@H]1NC[C@H](O)[C@@H](O)[C@H]1O` [migalastat, (2R,3S,4R,5S)-2-(hydroxymethyl) piperdine-3,4,5-triol] the Deaths [1] was “No deaths were reported”, the “Patients who experienced serious adverse events” value ([2]; Stage 1, migalastat group) was 2 patients and the “Patients who experienced serious adverse events” value ([2]; Stage 2) was 5 patients. The “Adverse event frequency: procedural pain (related to kidney biopsies)” value ([2]; Stage 2 (months 6-12, open-label), 7/63 patients) was 11%, the “Adverse event frequency: headache” value ([2]; Stage 2 (months 6-12, open-label), 9/63 patients) was 14% and the “Progression to end-stage renal disease, cardiac death, stroke” value ([2]; as defined in Banikazemi et al.) was “no progression to end-stage renal disease, no cardiac death and no stroke”. For the same compound, the “Patients who discontinued migalastat due to serious adverse events” value ([2]; both deemed unrelated to migalastat) was “Two”, the “Serious adverse events assessed as possibly related to migalastat by the investigator” value ([2]; fatigue and paresthesia, same patient, months 12-24, resolved) was “Two” and the “Adverse events leading to migalastat discontinuation” value ([2]; human, in vivo) was “No adverse events led to migalastat discontinuation”. The “Severity of most adverse events” value ([2]; human, in vivo) was “mild or moderate in severity”, the “Vital sign, physical findings, laboratory and ECG parameters” value ([2]; human, in vivo) was “did not reveal any clinically relevant effect” and the Transient ischemic attack ([2]; judged unrelated to migalastat) was “single case”. The “Patients who experienced serious adverse events” value ([2]; open-label-extension) was 11 patients, the “Adverse event frequency: bronchitis” value [2, 6] was 11% and the “Adverse event frequency: headache” value [2, 6] was 11%. The “Adverse event frequency: proteinuria (treatment-emergent)” value ([2]; open-label-extension (months 12-24), 9/57 patients) was 16%, the “Patients in whom 24-hour urine protein remained stable during migalastat treatment” value ([2]; patients with baseline proteinuria <300 mg/24-h) was 23/28 and the “Effect on MWFS (in words)” value ([3]; ERT-experienced patients with impaired MWFS at baseline) was “stabilized MWFS”. The “Mean change from baseline in MWFS” value ([3]; patients with impaired MWFS at baseline, LOCF, over 30 months of migalastat therapy, n=14) was −0.2%, the “Binding to the active site of α-Gal A (in words)” value [4] was “high affinity” and the “Effect on MWFS (in words)” value ([5]; ERT-naïve patients with impaired MWFS at baseline) was “increased MWFS”. For the same compound, the “Change from baseline in MWFS, mean” value ([5]; patients with LVH at baseline, LOCF, over 48 months) was 1.0%, the “Change from baseline in MWFS, mean” value ([5]; patients with LVH at baseline, Month 12) was 0.2% and the “Change from baseline in MWFS, mean” value ([5]; patients with LVH at baseline, Month 24) was 0.9%. The “Change from baseline in MWFS, mean” value ([5]; patients with LVH at baseline, Month 36) was 0.7%, the “Change from baseline in MWFS, mean” value [5, 7] was 0.6% and the “Normalization of MWFS, patients n/N (%)” value [5, 7] was 0. For the same compound, the “Mean change from baseline in MWFS” value ([5]; patients with impaired MWFS at baseline, LOCF, over 48 months) was 1.9%, the “Mean change from baseline in MWFS” value ([5]; patients with impaired MWFS at baseline, LOCF, over 48 months, listed as Migalastat) was 1.9% and the “Mean change from baseline in MWFS” value ([5]; patients with impaired MWFS at baseline, Month 12, 150 mg migalastat HCl QOD) was 0.1%. The “Mean change from baseline in MWFS” value ([5]; patients with impaired MWFS at baseline, Month 24) was 1.4%, the “Mean change from baseline in MWFS” value ([5]; patients with impaired MWFS at baseline, Month 36) was 1.4% and the “Mean change from baseline in MWFS” value ([5]; patients with impaired MWFS at baseline, Month 48) was 2.4%. The “Normalization of MWFS, patients n/N (%)” value ([5]; patients with impaired MWFS at baseline, Month 12) was 0.
